Measured values published in patent US20040228868A1, “Apo-2L receptor agonist and CPT-11 synergism” (Genentech, Inc., priority 1999, published 2004).

Tested on: COLO205 colon carcinoma cells
Assay: COLO205 colon carcinoma xenograft tumor growth in athymic nude mice (Example 1)
Type: in vivo, human
Details: Apo-2L 30 mg/kg/day days 0-4 and 7-11, CPT-11 80 mg/kg/day days 0, 4, 8; for animals in which tumor growth resumed several days after the treatment period: of 9 mice per group
Description: The colon carcinoma cell line COLO205 (available from NCI) were grown and maintained according to the supplier's methods. Briefly, COLO205 cells were cultured in high glucose DMEM/F12 (50:50) media containing 10% fetal bovine serum and 2.0 mM-L-Glutamine. […] Cell-paste containing recombinant human soluble Apo-2L was extracted with a buffer containing 0.1M Tris/0.2M NaCl/50 mM EDTA, pH 8.0. The extract was precipitated by 40% ammonium sulfate. […] Purity was determined by sodium-dodecyl sulfate (SDS)-polyacrylamide gel electrophoresis and silver-nitrate or coomassie-blue staining, by amino acid sequence analysis, and by size-exclusion on high performance liquid chromatography (HPLC). CPT-11 (Camptosar®) was obtained from Pharmacia & Upjohn.
Athymic nude mice (Jackson Laboratories) were injected subcutaneously with 5 million COLO205 colon carcinoma cells and the tumors allowed to grow to about 120 mm^3. Tumor-bearing mice were randomized into 4 groups at 9 mice per group and treated with either vehicle (20 mM Tris, 8% Trehalose, 0.01 Tween-20, pH 7.5), Apo-2L (30 mg/kg/day on days 0-4 and 7-11), or CPT-11 (80 mg/kg/day on days 0, 4, and 8), or a combination of Apo-2L (30 mg/kg/day on days 0-4 and 7-11) plus CPT-11 (80 mg/kg/day on days 0, 4, and 8). Tumor volumes were determined at the indicated days over 34 days.

Row | Molecule | animals in which tumor growth resumed several days after the treatment period [animals] | effect on tumor growth (tumor volume, FIG. 1) (s.c. COLO205 tumors about 120 mm^3, 9 mice per group, followed 34 days)
1 | CCc1c2c(nc3ccc(OC(=O)N4CCC(N5CCCCC5)CC4)cc13)-c1cc3c(c(=O)n1C2)COC(=O)[C@]3(O)CC.Cl.O.O.O [CPT-11, (4S)-4,11-diethyl-4-hydroxy-9-[(4-piperidino-piperidino)carbonyloxyl]-1H-pyrano[3′,4′:6,7]indolizino[1,2-b]quinoline-3,14(4H,12H)dione hydrochloride trihydrate] | 9 | –
2 | Apo-2L: recombinant human soluble Apo-2L, extracellular portion amino acids 114-281, prepared in E. coli | 9 | suppressed tumor growth during the treatment period
